Results reported in DBAASP.
Values after ≈ are worked out from the molar mass of the structure shown. Values joined by “and” are separate entries in the source; they are usually repeats but may differ in a detail not shown here. Equal values may be shown once. Blank lines part the entries; values can stand above or below the compound they belong to.

Legend:
Assay in all cases: ≥ marks a high value that may be exact or a test limit, other limits are often not marked, values filed in µg/mL are converted to µM
[1] = system: Aspergillus awamori KCTC 6915
[2] = system: Staphylococcus aureus ATCC 25923
[3] = system: Escherichia coli ATCC 25922
[4] = system: Listeria monocytogenes ATCC 19115
[5] = system: Bacillus subtilis KCTC 1918
[6] = system: Staphylococcus epidermidis KCTC 3096
[7] = system: Aspergillus flavus KCTC 6905
[8] = system: Candida albicans KCTC 7270
[9] = system: Listeria monocytogenes KCTC 3710
[10] = system: Trichosporon beigelii KCTC 7707
[11] = system: Bacillus subtilis KCTC 1998
[12] = system: Salmonella typhimurium KCTC 1926
[13] = system: Aspergillus parasiticus KCTC 6598
[14] = system: Pseudomonas aeruginosa ATCC 15692
[15] = system: Aspergillus fumigatus KCTC 6145
[16] = system: Staphylococcus epidermidis ATCC 12228
[17] = system: Pseudomonas aeruginosa KCTC 1637
[18] = system: Proteus vulgaris KCTC 2433
Escherichia coli HB101 = system: Escherichia coli HB101
[19] = system: Corynebacterium glutamicum ATCC 13032
[20] = system: Pseudomonas aeruginosa ATCC 27853
[21] = system: Staphylococcus aureus ATCC 9144
Escherichia coli KF111 = system: Escherichia coli KF111
[22] = system: Staphylococcus epidermidis
Escherichia coli UB1005 = system: Escherichia coli UB1005
Escherichia coli KF130 = system: Escherichia coli KF130
[23] = system: Salmonella enterica subsp. enterica serovar Typhimurium ATCC 14028s
[24] = system: Pseudomonas aeruginosa H744
[25] = system: Pseudomonas aeruginosa H374
[26] = system: Pseudomonas aeruginosa K799
[27] = system: Pseudomonas corrugata DSM 7228
[28] = system: Clavibacter michiganensis subsp. michiganensis DSM 46294
[29] = system: Pseudomonas syringae pv. tomato DC3000
[30] = system: Pseudomonas syringae pv. syringae DSM 10604
[31] = system: Staphylococcus aureus 90857
[32] = system: Xanthomonas vesicatoria DSM 50861
[33] = system: Pectobacterium carotovorum subsp. carotovorum DSM 30168
Staphylococcus aureus = system: Staphylococcus aureus
Escherichia coli W160-37 = system: Escherichia coli W160-37

Structure (SMILES): CC[C@H](C)[C@H](NC(=O)[C@H](CCCCN)NC(=O)[C@H](CCCCN)NC(=O)[C@H](C)NC(=O)[C@H](CC(C)C)NC(=O)[C@H](CCCCN)NC(=O)[C@H](CCCCN)NC(=O)[C@H](CC(C)C)NC(=O)[C@H](CCCN=C(N)N)NC(=O)[C@H](CCCCN)NC(=O)[C@H](C)N)C(=O)N[C@@H](Cc1c[nH]c2ccccc12)C(=O)N[C@@H](CC(N)=O)C(=O)N[C@@H](Cc1c[nH]c2ccccc12)C(=O)N[C@@H](CCCCN)C(N)=O [AKRLKKLAKKIWNWK]
- MIC [1]: 16 µM (≈ 30.6 µg/mL)
- MIC [2]: 5.66 µM and 16 µM
- MIC [3]: 22.6 µM (≈ 43.2 µg/mL)
- MIC [4]: 2 µM (≈ 3.82 µg/mL)
- MIC [5]: 4 µM (≈ 7.64 µg/mL)
- MIC [6]: 16 µM (≈ 30.6 µg/mL)
- MIC [7]: ≥ 32 µM
- MIC [8]: 16 µM (≈ 30.6 µg/mL)
- MIC [9]: 2 µM (≈ 3.82 µg/mL)
- MIC [10]: ≥ 32 µM
- MIC [11]: 4 µM (≈ 7.64 µg/mL)
- MIC [12]: 2 µM (≈ 3.82 µg/mL)
- MIC [13]: 8 µM (≈ 15.3 µg/mL)
- MIC [14]: 2 µM (≈ 3.82 µg/mL)
- MIC [15]: 4 µM (≈ 7.64 µg/mL)
- MIC [16]: 16 µM (≈ 30.6 µg/mL)
- MIC [17]: 2 µM (≈ 3.82 µg/mL)
- MIC [18]: 4 µM (≈ 7.64 µg/mL)

Structure (SMILES): CC[C@H](C)[C@H](NC(=O)[C@@H]1CCCN1C(=O)[C@H](CCCCN)NC(=O)[C@@H]1CCCN1C(=O)[C@H](CCCN=C(N)N)NC(=O)CNC(=O)[C@@H]1CCCN1C(=O)[C@H](Cc1ccccc1)NC(=O)[C@@H]1CCCN1C(=O)[C@H](CCCN=C(N)N)NC(=O)[C@@H]1CCCN1C(=O)[C@H](CCCN=C(N)N)NC(=O)CN)C(=O)N[C@@H](Cc1ccccc1)C(=O)N[C@@H](CCCN=C(N)N)C(=O)N1CCC[C@H]1C(=O)N[C@@H](CCCN=C(N)N)C(=O)O [GRPRPFPGRPKPIFRPR]
- MIC [3]: 70.7 µM (≈ 144 µg/mL)
- MIC (Escherichia coli HB101): 25 µM (≈ 50.8 µg/mL)
- MIC [19]: 3.1 µM (≈ 6.3 µg/mL)
- MIC [20]: 70.7 µM (≈ 144 µg/mL)
- MIC [21]: ≥ 100 µM

Structure (SMILES): CC[C@H](C)[C@H](NC(=O)[C@@H]1CCCN1C(=O)[C@H](CCCCN)NC(=O)[C@H](CC(C)C)NC(=O)[C@H](C)NC(=O)[C@@H](NC(=O)[C@H](Cc1cnc[nH]1)NC(=O)[C@H](CC(C)C)NC(=O)[C@@H](NC(=O)[C@@H](NC(=O)[C@H](CCCN=C(N)N)NC(=O)[C@H](C)NC(=O)[C@@H]1CCCN1C(=O)[C@H](CO)NC(=O)[C@H](CCCCN)NC(=O)[C@H](Cc1ccccc1)NC(=O)[C@@H](NC(=O)[C@H](CCCCN)NC(=O)[C@H](CC(C)C)NC(=O)[C@H](Cc1ccccc1)NC(=O)[C@H](CO)NC(=O)[C@H](CCCCN)NC(=O)[C@H](Cc1c[nH]c2ccccc12)NC(=O)[C@@H](N)CCCCN)[C@@H](C)O)[C@@H](C)O)C(C)C)[C@@H](C)O)C(=O)N[C@@H](CO)C(=O)N[C@@H](CO)C(=O)O [KWKSFLKTFKSPARTVLHTALKPISS]
- MIC (Escherichia coli KF111): 1.35 µM (≈ 4 µg/mL)
- MIC [22]: 21.5 µM (≈ 64 µg/mL)
- MIC (Escherichia coli UB1005): 1.35 µM (≈ 4 µg/mL)
- MIC (Escherichia coli KF130): 2.69 µM (≈ 8 µg/mL)
- MIC [23]: 10.8 µM (≈ 32 µg/mL)
- MIC [24]: 10.8 µM (≈ 32 µg/mL)
- MIC [25]: 10.8 µM (≈ 32 µg/mL)
- MIC [26]: 10.8 µM (≈ 32 µg/mL)
- MIC [20]: 4 µM (≈ 11.9 µg/mL)

Structure (SMILES): CC[C@H](C)[C@H](NC(=O)[C@@H]1CCCN1C(=O)[C@H](CCCCN)NC(=O)[C@H](CC(C)C)NC(=O)[C@H](C)NC(=O)[C@@H](NC(=O)[C@H](Cc1ccc(O)cc1)NC(=O)[C@H](Cc1ccccc1)NC(=O)[C@@H](NC(=O)[C@@H](NC(=O)[C@H](CCCCN)NC(=O)[C@@H](NC(=O)[C@@H]1CCCN1C(=O)[C@H](CO)NC(=O)[C@H](CCCCN)NC(=O)[C@H](CC(C)C)NC(=O)[C@@H](NC(=O)[C@H](CCCCN)NC(=O)[C@H](CC(C)C)NC(=O)[C@H](Cc1ccccc1)NC(=O)[C@H](CO)NC(=O)[C@H](CCCCN)NC(=O)[C@H](Cc1c[nH]c2ccccc12)NC(=O)[C@@H](N)CCCCN)[C@@H](C)O)C(C)C)[C@@H](C)O)C(C)C)[C@@H](C)O)C(=O)N[C@@H](CO)C(=O)N[C@@H](CO)C(=O)O [KWKSFLKTLKSPVKTVFYTALKPISS]
- MIC (Escherichia coli KF111): 0.667 µM (≈ 2 µg/mL)
- MIC [22]: 10.7 µM (≈ 32 µg/mL)
- MIC (Escherichia coli UB1005): 0.667 µM (≈ 2 µg/mL)
- MIC (Escherichia coli KF130): 0.667 µM (≈ 2 µg/mL)
- MIC [23]: 5.34 µM (≈ 16 µg/mL)
- MIC [24]: 5.34 µM (≈ 16 µg/mL)
- MIC [25]: 5.34 µM (≈ 16 µg/mL)
- MIC [26]: 5.34 µM (≈ 16 µg/mL)

Results, then the compound that gave them:

- MIC [27]: 1.65 µM (≈ 2.5 µg/mL)
- MIC [28]: 0.165 µM (≈ 0.25 µg/mL)
- MIC [29]: 0.661 µM (≈ 0.999 µg/mL)
- MIC [30]: 0.165 µM (≈ 0.25 µg/mL)
- MIC [31]: 0.625 µM (≈ 0.945 µg/mL)
- MIC [32]: 0.0661 µM (≈ 0.0999 µg/mL)
- MIC [33]: 1.65 µM (≈ 2.5 µg/mL)
Structure (SMILES): CC[C@H](C)[C@H](NC(=O)[C@H](CC(C)C)NC(=O)[C@H](CCCCN)NC(=O)[C@H](CCCCN)NC(=O)[C@H](CC(C)C)NC(=O)[C@@H](NC(=O)[C@H](CCCCN)NC(=O)[C@H](CCCCN)NC(=O)[C@@H](NC(=O)[C@H](Cc1ccccc1)NC(=O)[C@H](CCCN=C(N)N)NC(=O)[C@@H](N)CC(C)C)[C@@H](C)CC)[C@@H](C)CC)C(N)=O [LRFIKKILKKLI]

- MIC (Staphylococcus aureus): 154 µM (≈ 203 µg/mL)
- MIC (Escherichia coli W160-37): ≥ 154 µM
Structure (SMILES): CC[C@H](C)[C@H](NC(=O)[C@H](Cc1c[nH]c2ccccc12)NC(=O)[C@H](CCCCN)NC(=O)[C@H](CO)NC(=O)[C@H](CC(C)C)NC(=O)[C@H](Cc1ccccc1)NC(=O)[C@H](CCCCN)NC(=O)[C@H](CC(C)C)NC(=O)[C@H](CCCCN)NC(=O)[C@@H]1CCCN1)C(=O)NCC(=O)O [PKLKFLSKWIG]

- MIC [3]: > 100 µM
- MIC (Escherichia coli HB101): ≥ 100 µM
- MIC [19]: 12.5 µM (≈ 22.7 µg/mL)
- MIC [20]: > 100 µM
- MIC [21]: ≥ 100 µM
Structure (SMILES): CC[C@H](C)[C@H](NC(=O)[C@@H]1CCCN1C(=O)[C@H](CCCCN)NC(=O)[C@@H]1CCCN1C(=O)[C@H](CCCN=C(N)N)NC(=O)CNC(=O)[C@@H]1CCCN1C(=O)[C@H](Cc1ccccc1)NC(=O)[C@@H]1CCCN1C(=O)[C@H](CCCN=C(N)N)NC(=O)[C@@H]1CCCN1)C(=O)N[C@@H](Cc1ccccc1)C(=O)N[C@@H](CCCN=C(N)N)C(=O)N1CCC[C@H]1C(=O)N[C@@H](CCCN=C(N)N)C(=O)O [PRPFPGRPKPIFRPR]

- MIC [27]: 6.69 µM (≈ 9.99 µg/mL)
- MIC [28]: 6.69 µM (≈ 9.99 µg/mL)
- MIC [29]: 0.669 µM (≈ 0.999 µg/mL)
- MIC [30]: 3.34 µM (≈ 5 µg/mL)
- MIC [31]: ≥ 62.5 µM
- MIC [32]: 6.69 µM (≈ 9.99 µg/mL)
- MIC [33]: 6.69 µM (≈ 9.99 µg/mL)
Structure (SMILES): CC(C)C[C@H](NC(=O)[C@H](CCCCN)NC(=O)[C@H](CCCCN)NC(=O)[C@H](CCCCN)NC(=O)[C@@H](N)CCCN=C(N)N)C(=O)N[C@@H](CCCCN)C(=O)N[C@H](C(=O)N[C@H](C(=O)N[C@@H](CCCCN)C(=O)N[C@@H](CCCN=C(N)N)C(=O)N[C@@H](CC(C)C)C(=O)N[C@H](C(N)=O)C(C)C)C(C)C)C(C)C [RKKKLKVVKRLV]
